Key:
Assay in all cases: relative viability (nuclei count vs DMSO), 5 days (fraction); higher = more cells survive
ALW-II-49-7 + Vorinostat = compound: Cc1ccc(C(=O)Nc2cccc(C(F)(F)F)c2)cc1Nc1cncc(C(N)=O)c1 [ALW-II-49-7] + O=C(CCCCCCC(=O)Nc1ccccc1)NO [Vorinostat] (partner 1 µM)
Method in brief: (§1)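 One day after seeding in 1536-well plates, lung cancer cell lines were dosed by pin tool. Dosing was either single-drug or a fixed anchor-drug dose plus five library-drug doses (not always all listed) in √10 steps. After 5 days, nuclei were stained in one fix-and-stain step and counted on 4× images, and relative viability is the nuclei count of treated wells over that of vehicle wells, given as the median of duplicate plates.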

ALW-II-49-7 + Phenformin = compound: Cc1ccc(C(=O)Nc2cccc(C(F)(F)F)c2)cc1Nc1cncc(C(N)=O)c1 [ALW-II-49-7] + N=C(N)NC(=N)NCCc1ccccc1 [Phenformin] (partner 250 µM)
Method in brief: as §1

Dasatinib + Olaparib = compound: Cc1nc(Nc2ncc(C(=O)Nc3c(C)cccc3Cl)s2)cc(N2CCN(CCO)CC2)n1 [Dasatinib] + O=C(c1cc(Cc2n[nH]c(=O)c3ccccc23)ccc1F)N1CCN(C(=O)C2CC2)CC1 [Olaparib] (partner 8 µM)
Method in brief: as §1

ALW-II-49-7 + AZD7762 = compound: Cc1ccc(C(=O)Nc2cccc(C(F)(F)F)c2)cc1Nc1cncc(C(N)=O)c1 [ALW-II-49-7] + NC(=O)Nc1cc(-c2cccc(F)c2)sc1C(=O)N[C@H]1CCCNC1 [AZD7762] (partner 0.2 µM)
Method in brief: as §1

| Cell Line | relative viability (ALW-II-49-7 + Vorinostat; first compound 0.08 µM) | relative viability (ALW-II-49-7 + Vorinostat; first compound 0.253 µM) | relative viability (ALW-II-49-7 + Vorinostat; first compound 0.8 µM) | relative viability (ALW-II-49-7 + Vorinostat; first compound 2.53 µM) | relative viability (ALW-II-49-7 + Vorinostat; first compound 8 µM) | relative viability (ALW-II-49-7 + Phenformin; first compound 0.08 µM) | relative viability (ALW-II-49-7 + Phenformin; first compound 0.253 µM) | relative viability (ALW-II-49-7 + Phenformin; first compound 0.8 µM) | relative viability (ALW-II-49-7 + Phenformin; first compound 2.53 µM) | relative viability (ALW-II-49-7 + Phenformin; first compound 8 µM) | relative viability (Dasatinib + Olaparib; first compound 0.005 µM) | relative viability (Dasatinib + Olaparib; first compound 0.01581 µM) | relative viability (Dasatinib + Olaparib; first compound 0.05 µM) | relative viability (Dasatinib + Olaparib; first compound 0.1581 µM) | relative viability (Dasatinib + Olaparib; first compound 0.5 µM) | relative viability (ALW-II-49-7 + AZD7762; first compound 0.08 µM) | relative viability (ALW-II-49-7 + AZD7762; first compound 0.253 µM) | relative viability (ALW-II-49-7 + AZD7762; first compound 0.8 µM) | relative viability (ALW-II-49-7 + AZD7762; first compound 2.53 µM) | relative viability (ALW-II-49-7 + AZD7762; first compound 8 µM) |
| --- | --- | --- | --- | --- | --- | --- | --- | --- | --- | --- | --- | --- | --- | --- | --- | --- | --- | --- | --- | --- |
| 201T | 0.922 | 1.02 | 0.995 | 1.02 | 0.801 | 0.43 | 0.456 | 0.456 | 0.477 | 0.414 | 0.783 | 0.753 | 0.707 | 0.636 | 0.445 | 0.661 | 0.604 | 0.745 | 0.574 | 0.552 |
| A549 | – | – | – | – | – | 0.19 | 0.125 | 0.117 | 0.0978 | 0.201 | 0.312 | 0.306 | 0.269 | 0.308 | 0.116 | – | – | – | – | – |
| A-427 | 0.936 | 0.902 | 0.854 | 0.838 | 0.826 | 0.216 | 0.305 | 0.316 | 0.357 | 0.27 | 0.704 | 0.646 | 0.637 | 0.574 | 0.563 | 0.714 | 0.814 | 0.634 | 0.759 | 0.482 |
| ABC-1 | 1.05 | 1.2 | 1.13 | 0.78 | 1.27 | 0.3 | 0.244 | 0.249 | 0.26 | 0.262 | 0.867 | 0.767 | 0.786 | 0.621 | 0.841 | 0.914 | 0.563 | 0.915 | – | 0.668 |
| BEN | 0.557 | 0.723 | 0.592 | 0.441 | 0.558 | 0.33 | 0.264 | 0.25 | 0.233 | 0.287 | 0.755 | 0.641 | 0.724 | 0.549 | 0.456 | 0.723 | 0.769 | 0.666 | 0.799 | 0.765 |
| CAL-12T | 0.681 | 0.866 | 0.834 | 0.737 | 0.76 | 0.543 | 0.498 | 0.603 | 0.627 | 0.538 | 0.689 | 0.688 | 0.877 | 0.755 | 0.575 | 0.5 | 0.641 | 0.744 | 0.349 | 0.588 |
| COR-L23 | 0.409 | 0.452 | 0.496 | 0.414 | 0.385 | 0.461 | 0.448 | 0.426 | 0.462 | 0.363 | 0.338 | 0.294 | 0.325 | 0.208 | 0.211 | – | – | – | – | – |
| COR-L 105 | 0.772 | 0.911 | 0.688 | 0.809 | 0.967 | 0.423 | 0.48 | 0.471 | 0.466 | 0.47 | 0.517 | 0.494 | 0.617 | 0.452 | 0.336 | – | – | – | – | – |
| Calu-6 | – | – | – | – | – | – | – | – | – | – | 0.57 | 0.434 | 0.449 | 0.357 | 0.34 | – | – | – | – | – |
| ChaGo-K-1 | 0.744 | 0.75 | 0.713 | 0.689 | 0.83 | 0.48 | 0.584 | 0.465 | 0.46 | 0.401 | 0.424 | 0.404 | 0.426 | 0.393 | 0.325 | 0.94 | 0.996 | 0.882 | 0.768 | 0.807 |
| EBC-1 | – | – | – | – | – | – | – | – | – | – | 0.803 | 0.619 | 0.612 | 0.613 | 0.602 | – | – | – | – | – |
| EKVX | 0.407 | 0.747 | 0.734 | 0.678 | 0.636 | 0.233 | 0.229 | 0.215 | 0.261 | 0.224 | 0.852 | 0.669 | 0.676 | 0.338 | 0.189 | 0.665 | 0.619 | 0.821 | 0.574 | 0.646 |
| EMC-BAC-2 | 0.462 | 0.419 | 0.301 | 0.409 | 0.281 | 0.426 | 0.513 | 0.505 | 0.454 | 0.338 | 0.462 | 0.404 | 0.447 | 0.355 | 0.301 | 1.09 | 1.21 | 0.916 | 1.11 | 0.896 |
| EPLC-272H | 0.37 | 0.436 | 0.352 | 0.32 | 0.301 | 0.29 | – | 0.23 | 0.342 | 0.303 | 0.793 | 0.681 | 0.697 | 0.33 | 0.208 | 0.169 | 0.251 | 0.278 | 0.248 | 0.198 |
| H3255 | 0.925 | 0.804 | 0.813 | 0.735 | 0.686 | 0.442 | 0.394 | 0.373 | 0.331 | 0.329 | 0.551 | 0.604 | 0.563 | 0.476 | 0.341 | 0.938 | 1.06 | 0.874 | 0.801 | 0.574 |
| HARA | 0.608 | 0.597 | 0.634 | 0.594 | 0.58 | 0.452 | 0.476 | 0.345 | 0.461 | 0.482 | 0.822 | 0.625 | 0.517 | 0.186 | 0.188 | 0.325 | 0.28 | 0.3 | 0.375 | 0.347 |
| HCC-15 | 0.913 | 0.807 | 0.916 | 0.802 | 0.893 | 0.488 | 0.433 | 0.456 | 0.544 | 0.399 | 0.763 | 0.764 | 0.851 | 0.733 | 0.689 | 1.22 | 1.14 | 1 | 1.39 | 1.25 |
| HCC-44 | 1.14 | 1.11 | 1.11 | 1.12 | 1.09 | 0.261 | 0.203 | 0.231 | 0.277 | 0.211 | 1.03 | 0.958 | 1.11 | 1.13 | 0.986 | 0.992 | 1.02 | 1.03 | 1.03 | 0.964 |
| HCC-78 | 0.428 | 0.358 | 0.408 | 0.342 | 0.485 | 0.718 | 0.745 | – | 0.677 | 0.633 | 0.596 | 0.649 | 0.639 | 0.577 | 0.243 | 0.614 | 0.693 | 0.684 | 0.611 | 0.713 |

From the supplement of paper PMC10307832
